In patent US5149865A, “New p-oxibenzoic acid derivatives, process for their preparation and their use as drug” (Klinge Pharma GmbH, priority 1991, dated 1992):

What was measured:
[1] = system: total cholesterol (TC) and triglyceride (TG) level in the rat serum; test: Determination of the hypolipidemic effect on rats (serum total cholesterol and triglycerides after oral administration); type: in vivo, normolipemic male Wistar rats; conditions: 100 mg/kg oral, three administrations over 3 days, groups of 10 male Wistar rats
Experimental: 1) Determination of the hypolipidemic effect on rats
The lipid-reducing effect of the test substances was examined on groups each of 10 normolipemic male Wistar rats weighing 200 to 220 g.
The tests were carried out after a 3-week retraining of the eating habits of the animals. The controlled feeding was carried out daily from 8 a.m. to 10 a.m. The test substances were administered at 11 a.m.
The test compounds were absorbed in an aqueous solution of 0.25% agar and 0.84% sodium chloride and administered orally. After three administrations over a period of 3 days blood was extracted from the animals. Cholesterol and triglycerides were determined in the serum with the aid of the "Cobas-Bio" centrifugal analyzer of Hoffmann-La Roche:
a) Cholesterol determination
CHOD-PAP method, enzymatic color test according to J. Siedel et al. (J. Clin. Chem. Clin. Biochem. 19, 838 (1981))
b) Triglyceride determination
Enzymatic cleavage of the triglycerides with the aid of special lipases with subsequent determination of the liberated glycerol according to T. O. Tiffany et al. (Clin. Chem. 20, 476 (1974))

[2] = system: cholesterol biosynthesis in rat liver homogenate; test: Determination of the inhibition of cholesterol synthesis in rat liver homogenate (14C acetate incorporation); type: biochemical
Experimental: 2) Determination of the inhibition of cholesterol synthesis
3 g freshly prepared rat liver were homogenized in 6 ml ice-cooled buffer and centrifuged at 20000 * g for 20 minutes. The supernatant was separated off and used for the following determinations.
10 μl of the methanolic test substance solution was pipetted into a mixture of 110 μl supernatant and 300 μl incubation solution and incubated at 37° C. for 20 minutes. Thereafter, 10 μl of a ^14 C acetate solution was pipetted in and incubated for a further 30 minutes. Thereafter, 500 μl ethanolic KOH solution was added to the mixture, further incubated for 60 minutes at 75° C. and thereafter the reaction stopped by cooling in an ice bath. To enable a yield correction to be made for the subsequent extraction of the ^14 C cholesterol forming, ^3 H cholesterol (≈10^-3) was added by pipetting. In addition, 500 μl of an ethanolic solution of cold cholesterol was added. The cholesterol of the mixture was extracted twice with 1 ml petroleum ether, the extract concentrated by evaporating to dryness and taken up in 0.6 ml of an ethanol acetone mixture (1/1). The dissolved cholesterol was then precipitated by means of 1.4 ml of a digitonin solution (=7 mg). After 15 hours at 0° C. the precipitate was centrifuged off, dissolved with 0.5 ml methanol/glacial acetic acid (33/5) and diluted with two ml methanol. The radioactivity of the resulting cholesterol was then determined in […] scintillation liquid (Dimilume) by means of a scintillation counter.
Buffer: 6.8 g KH2 PO4, 0.6 g MgCl2, 0.37 g EDTA, 1.83 g nicotine amide, 51.35 g saccharose and 0.44 ml mercaptoethanol were dissolved in distilled water and diluted to 500 ml (PH =7.2)
Incubation solution: The following were dissolved, in each case individually:
8.6 mg […] with 1.3 ml buffer
10.2 mg NADP with 1.3 ml buffer
39.6 mg glucose-6-phosphate with 0.65 ml buffer
31.6 μl glucose-6-phosphate dehydrogenase (1000 U/0.9 ml) with 0.285 buffer
These solutions were not mixed until immediately prior to use.
^14 C-acetate: Solution: 250 μCi ^14 C-Na-acetate was dissolved by means of 1 ml distilled water, Solution 2: 512.5 mg Na-acetate was dissolved in 10 ml distilled water.
Before the test, 0.1 ml of solution 1 and 0.4 ml of solution 2 were mixed and then mixed with 2 ml distilled water.
Ethanolic KOH: 10 g were dissolved in 100 ml ethanol.
Method: R. E. Dugan et al. Archives Bioch. Biophys. 152 21, (1972)

For `CCOC(=O)C(C)(C)Oc1ccc(Cl)cc1` [Clofibrate, reference compound], the “Percentage change of total cholesterol (TC) level in the rat serum, X ± SD” value (“Percentage change of total cholesterol … X ± SD” for short) [1] was -14.5 + 12.0 % Change and the “Percentage change of triglyceride (TG) level in the rat serum, X ± SD” value (from here on “Percentage change of triglyceride … X ± SD”) [1] was -29.2 + 19.4 % Change.

For `CC(C)(C)c1ccc(C(O)CC(O)COc2ccc(C(=O)O)cc2)cc1` (single isomer, unassigned) [Diastereomer B, 1-(4'-tert.butylphenyl)-4-(4'-carboxyphenoxy)-butanediol-1,3], the “Percentage change of total cholesterol … X ± SD” value [1] was -66.9 ± 8.6 % Change, the “Percentage change of triglyceride … X ± SD” value [1] was -29.7 ± 15.5 % Change and the “cholesterol biosynthesis in rat liver homogenate, % Control” value (“cholesterol biosynthesis … % Control” for short) ([2]; 1*10^-5 Mole/l, 10 µM) was 42 % Control.

For `CC(C)(C)c1ccc(C(O)CC(O)COc2ccc(C(=O)O)cc2)cc1` (single isomer, unassigned) [Diastereomer A, 1-(4'-tert.butylphenyl)-4-(4'-carboxyphenoxy)-butanediol-1,3], the “Percentage change of total cholesterol … X ± SD” value [1] was -39.1 ± 15.5 % Change, the “Percentage change of triglyceride … X ± SD” value [1] was -26.4 ± 13.1 % Change and the “cholesterol biosynthesis … % Control” value ([2]; 1*10^-4 Mole/l, 100 µM) was 9 % Control. For the same molecule, the “cholesterol biosynthesis … % Control” value ([2]; 1*10^-5 Mole/l, 10 µM) was 36 % Control, the “cholesterol biosynthesis … % Control” value ([2]; 1*10^-6 Mole/l, 1 µM) was 103 % Control and the “cholesterol biosynthesis … % Control” value ([2]; 3*10^-4 Mole/l, 300 µM) was 2 % Control. For the same molecule, the “cholesterol biosynthesis … % Control” value ([2]; 3*10^-5 Mole/l, 30 µM) was 14 % Control, the “cholesterol biosynthesis … % Control” value ([2]; 3*10^-6 Mole/l, 3 µM) was 97 % Control and the “cholesterol biosynthesis … % Control” value ([2]; 3*10^-7 Mole/l, 0.3 µM) was 122 % Control.
